Experimental findings from patent US10696693B2, “Fused imidazole derivatives as TGF-beta inhibitors” (Rigel Pharmaceuticals, Inc., priority 2014, dated 2020) are described below.

Read-outs that look alike come from different tables or passages of the source. Bounds are passed on as bounds.

One test deals with GDF8. The experiment in a line: AlphaScreen SureFire p-SMAD3 (Ser423/425) assay, GDF8-stimulated cells. It is filed as cell-based. Particulars: Mus musculus. The method, boiled down: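 A SureFire AlphaScreen assay measured phosphorylation of endogenous SMAD-3 at Ser423/425 in cell lysates. Cells were treated with three-fold serially diluted compounds in DMSO for about 10 minutes, then stimulated with GDF8. After medium removal, cells were lysed in 1× Lysis Buffer (about 25 μL) with gentle shaking for 5-10 minutes.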
On the technique in general: In Alpha technology, singlet oxygen from a donor bead excites a nearby acceptor bead.

Another test relates to TGF-β. The experiment in a line: AlphaScreen SureFire p-SMAD3 (Ser423/425) assay, TGF-β-stimulated cells. In kind it is cell-based. Particulars: Mus musculus. The gist of the method:
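The p-SMAD-3 (Ser423/425) SureFire assay measured phosphorylation of endogenous SMAD-3 in cell lysates. Cells were plated overnight in collagen-coated plates, exposed to three-fold serially diluted compounds for about 10 minutes, then stimulated with TGFβ. Lysates (5 μL) received acceptor bead mix for 2 hours, then donor beads for 1½ hours before AlphaScreen reading.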

Where [1] appears, read: MPC-11, p-SMAD3 (Ser423/425) AlphaScreen in cell lysate, MPC11, GDF8 stimulation, read-out: GDF8: inhibition of GDF8 signaling, GDF pSMAD (MPC11).
The mark [2] stands for this setting: p-SMAD3 (Ser423/425) AlphaScreen in cell lysate, MPC-11, TGF-β stimulation, read-out: TGF-β: inhibition of TGF-β signaling, TGF-β pSMAD (MPC-11).

Turning to `Fc1cc(F)c(-c2nc3n(c2-c2ccc4ncccc4c2)CCN3)cc1F` [Compound 107, 6-(6-(2,4,5-trifluorophenyl)-2,3-dihydro-1H-imidazo[1,2-a]imidazol-5-yl)quinoline], the IC50 in the test with GDF8 (setting [1]) and with TGF-β (setting [2]) was < 50 nM in each case.

`Fc1cc(F)c(-c2nc3n(c2-c2ccc4nccn4c2)CCN3)cc1F` [Compound 108, 6-(6-(2,4,5-trifluorophenyl)-2,3-dihydro-1H-imidazo[1,2-a]imidazol-5-yl)imidazo[1,2-a]pyridine]: the IC50 in the test with GDF8 (setting [1]) and in the test with TGF-β (setting [2]) was < 50 nM in each case.

As to `CC(=O)N1CCn2c1nc(-c1cc(F)cc(F)c1F)c2-c1ccc2ncnn2c1` [Compound 109, 1-(5-([1,2,4]triazolo[1,5-a]pyridin-6-yl)-6-(2,3,5-trifluorophenyl)-2,3-dihydro-1H-imidazo[1,2-a]imidazol-1-yl)ethan-1-one], the IC50 in the test with GDF8 (setting [1]) and in the test with TGF-β (setting [2]) was < 50 nM each time.

`Fc1cc(F)c(F)c(-c2nc3n(c2-c2ccc4ncccc4c2)CCN3)c1` [Compound 110, 6-(6-(2,3,5-trifluorophenyl)-2,3-dihydro-1H-imidazo[1,2-a]imidazol-5-yl)quinoline]: the IC50 in the test on GDF8 (setting [1]) and in the test with TGF-β (setting [2]) was < 50 nM in each case.

Consider `Fc1cc(F)c(F)c(-c2nc3n(c2-c2ccc4nccnc4c2)CCN3)c1` [Compound 111, 6-(6-(2,3,5-trifluorophenyl)-2,3-dihydro-1H-imidazo[1,2-a]imidazol-5-yl)quinoxaline], for which the IC50 with GDF8 (setting [1]) and with TGF-β (setting [2]) was < 50 nM each time.

Take `Fc1cc(F)c(F)c(-c2nc3n(c2-c2cc4cnccc4s2)CCN3)c1` [Compound 112, 2-(6-(2,3,5-trifluorophenyl)-2,3-dihydro-1H-imidazo[1,2-a]imidazol-5-yl)thieno[3,2-c]pyridine]: the IC50 in the test on GDF8 (setting [1]) and in the test on TGF-β (setting [2]) was < 50 nM throughout.

For the compound `Nc1ncnc2ccc(-c3c(-c4cc(F)cc(F)c4F)nc4n3CCN4)cc12` [Compound 113, 6-(6-(2,3,5-trifluorophenyl)-2,3-dihydro-1H-imidazo[1,2-a]imidazol-5-yl)quinazolin-4-amine], the IC50 in the test on GDF8 (setting [1]) and in the test with TGF-β (setting [2]) was 50 to 100 nM throughout.

Turning to `COCCOc1cnc2ccc(-c3c(-c4cc(F)c(F)cc4F)nc4n3CCN4)cc2n1` [Compound 115, 2-(2-methoxyethoxy)-7-(6-(2,4,5-trifluorophenyl)-2,3-dihydro-1H-imidazo[1,2-a]imidazol-5-yl)quinoxaline], the IC50 with GDF8 (setting [1]) and with TGF-β (setting [2]) was 100 to 1000 nM in each case.

As for `Fc1cc(F)c(-c2nc3n(c2-c2cc4cnccc4s2)CCN3)cc1F` [Compound 116, 2-(6-(2,4,5-trifluorophenyl)-2,3-dihydro-1H-imidazo[1,2-a]imidazol-5-yl)thieno[3,2-c]pyridine], the IC50 in the test on GDF8 (setting [1]) and in the test on TGF-β (setting [2]) was < 50 nM throughout.

Consider `COCCOc1cnc2ccc(-c3c(-c4cc(F)cc(F)c4F)nc4n3CCN4)cc2n1` [Compound 117, 2-(2-methoxyethoxy)-7-(2-(2,3,5-trifluorophenyl)-5,6-dihydro-7λ^2-imidazo[3,2-a]imidazol-3-yl)quinoxaline], for which the IC50 in the test on GDF8 (MPC-11, read-out: GDF8: inhibition of GDF8 signaling, GDF pSMAD (MPC11), p-SMAD3 (Ser423/425) AlphaScreen in cell lysate, GDF8 stimulation) was 100 to 1000 nM; in the test with TGF-β (MPC-11, read-out: TGF-β: inhibition of TGF-β signaling, TGF-β pSMAD (MPC-11), p-SMAD3 (Ser423/425) AlphaScreen in cell lysate, TGF-β stimulation) it was > 1000 nM.

With `O=C(O)C1Cn2c(nc(-c3cc(F)cc(F)c3F)c2-c2ccc3ncnn3c2)N1` (centres unmarked) [Compound 118, 5-([1,2,4]triazolo[1,5-a]pyridin-6-yl)-6-(2,3,5-trifluorophenyl)-2,3-dihydro-1H-imidazo[1,2-a]imidazole-2-carboxylic acid], the IC50 in the test with GDF8 (setting [1]) and in the test with TGF-β (setting [2]) was < 50 nM throughout.

Consider `CC(=O)N1c2nc(-c3cc(F)cc(F)c3F)c(-c3ccc4ncnn4c3)n2CC1C(=O)O` (centres unmarked) [Compound 119, 5-([1,2,4]triazolo[1,5-a]pyridin-6-yl)-1-acetyl-6-(2,3,5-trifluorophenyl)-2,3-dihydro-1H-imidazo[1,2-a]imidazole-2-carboxylic acid], for which the IC50 with GDF8 (setting [1]) and in the test on TGF-β (setting [2]) was < 50 nM each time.

In the case of `CN(C)CCOc1cnc2ccc(-c3c(-c4cc(F)c(F)cc4F)nc4n3CCN4)cc2n1` [Compound 120, N,N-dimethyl-2-((7-(6-(2,4,5-trifluorophenyl)-2,3-dihydro-1H-imidazo[1,2-a]imidazol-5-yl)quinoxalin-2-yl)oxy)ethan-1-amine], the IC50 in the test on GDF8 (setting [1]) and with TGF-β (setting [2]) was < 50 nM in each case.

In the case of `OCC1Cn2c(nc(-c3cc(F)cc(F)c3F)c2-c2ccc3ncnn3c2)N1` (centres unmarked) [Compound 121, (5-([1,2,4]triazolo[1,5-a]pyridin-6-yl)-6-(2,3,5-trifluorophenyl)-2,3-dihydro-1H-imidazo[1,2-a]imidazol-2-yl)methanol], the IC50 in the test on GDF8 (setting [1]) and in the test on TGF-β (setting [2]) was < 50 nM in each case.

For `Fc1cc(F)c(-c2nc3n(c2-c2ccc4ncc(OCCN5CCOCC5)nc4c2)CCN3)cc1F` [Compound 122, 4-(2-((7-(6-(2,4,5-trifluorophenyl)-2,3-dihydro-1H-imidazo[1,2-a]imidazol-5-yl)quinoxalin-2-yl)oxy)ethyl)morpholine], the values for the IC50 in the test with GDF8 (setting [1]) and in the test on TGF-β (setting [2]) were 50 to 100 nM and 100 to 1000 nM, respectively.

Consider `OCC1Cn2c(nc(-c3cc(F)cc(F)c3F)c2-c2ccc3ncccc3c2)N1` (centres unmarked) [Compound 123, (5-(quinolin-6-yl)-6-(2,3,5-trifluorophenyl)-2,3-dihydro-1H-imidazo[1,2-a]imidazol-2-yl)methanol], for which the IC50 in the test on GDF8 (setting [1]) is 50 to 100 nM; with TGF-β (setting [2]) it was 100 to 1000 nM.

Consider `OCC1Cn2c(nc(-c3cc(F)cc(F)c3F)c2-c2ccc3nccnc3c2)N1` (centres unmarked) [Compound 124, (5-(quinoxalin-6-yl)-6-(2,3,5-trifluorophenyl)-2,3-dihydro-1H-imidazo[1,2-a]imidazol-2-yl)methanol], for which the IC50 in the test with GDF8 (setting [1]) and in the test on TGF-β (setting [2]) was 100 to 1000 nM throughout.

Turning to `O=C(O)C1Cn2c(nc(-c3cc(F)cc(F)c3F)c2-c2ccc3nccnc3c2)N1` (centres unmarked) [Compound 125, 5-(quinoxalin-6-yl)-6-(2,3,5-trifluorophenyl)-2,3-dihydro-1H-imidazo[1,2-a]imidazole-2-carboxylic acid], the IC50 was 50 to 100 nM in the test on GDF8 (setting [1]) and < 50 nM in the test on TGF-β (setting [2]).

As to `Fc1ccc(-c2nc3occn3c2-c2ccc3[nH]ncc3c2)cc1` [Compound 126, 6-(4-fluorophenyl)-5-(1H-indazol-5-yl)imidazo[2,1-b]oxazole], the IC50 is < 50 nM in the test on GDF8 (setting [1]) and 50 to 100 nM in the test on TGF-β (setting [2]).

As to `Fc1ccc(-c2nc3occn3c2-c2ccc3ncsc3c2)cc1` [Compound 127, 5-(benzo[d]thiazol-6-yl)-6-(4-fluorophenyl)imidazo[2,1-b]oxazole], the IC50 with GDF8 (setting [1]) and in the test with TGF-β (setting [2]) was < 50 nM in each case.

Take `Fc1ccc(-c2nc3occn3c2-c2ccc3cn[nH]c3c2)cc1` [Compound 128, 6-(4-fluorophenyl)-5-(1H-indazol-6-yl)imidazo[1,2-b]oxaozle]: the IC50 in the test on GDF8 (setting [1]) and with TGF-β (setting [2]) was 100 to 1000 nM in each case.

`Fc1ccc(-c2nc3occn3c2-c2ccc3nccn3c2)cc1` [Compound 129, 6-(4-fluorophenyl)-5-(imidazo[1,2-a]pyridin-6-yl)imidazo[2,1-b]oxazole]: the IC50 in the test on GDF8 (setting [1]) is < 50 nM; in the test with TGF-β (setting [2]) it was 50 to 100 nM.

`Fc1ccc(-c2nc3occn3c2-c2ccc3nccnc3c2)cc1` [Compound 130, 6-(4-fluorophenyl)-5-(quinoxalin-6-yl)imidazo[2,1-b]oxazole]: the IC50 in the test on GDF8 (setting [1]) and in the test with TGF-β (setting [2]) was 100 to 1000 nM each time.

As to `Fc1ccc(-c2cn3ccoc3n2)cc1F` [Compound 131, 6-(3,4-difluorophenyl)imidazo[2,1-b]oxazole], the IC50 in the test with GDF8 (setting [1]) and in the test on TGF-β (setting [2]) was > 1000 nM throughout.

With `Fc1ccc(-c2nc3occn3c2I)cc1F` [Compound 132, 6-(3,4-difluorophenyl)-5-iodoimidazo[2,1-b]oxazole], the IC50 with GDF8 (setting [1]) and with TGF-β (setting [2]) was > 1000 nM throughout.

Turning to `Fc1ccc(-c2nc3occn3c2-c2ccc3[nH]ncc3c2)cc1F` [Compound 133, 6-(3,4-difluorophenyl)-5-(1H-indazol-5-yl)imidazo[2,1-b]oxazole], the IC50 in the test on GDF8 (setting [1]) and in the test on TGF-β (setting [2]) was 50 to 100 nM each time.

For `Fc1ccc(-c2nc3occn3c2-c2ccc3cn[nH]c3c2)cc1F` [Compound 134, 6-(3,4-difluorophenyl)-5-(1H-indazol-6-yl)imidazo[2,1-b]oxazole], the IC50 is 50 to 100 nM in the test with GDF8 (setting [1]) and 100 to 1000 nM in the test on TGF-β (setting [2]).

For `Fc1ccc(-c2nc3occn3c2-c2ccc3ncsc3c2)cc1F` [Compound 135, 5-(benzo[d]thiazol-6-yl)-6-(3,4-difluorophenyl)imidazo[2,1-b]oxazole], the IC50 in the test on GDF8 (setting [1]) is < 50 nM; with TGF-β (setting [2]) it was 50 to 100 nM.

Turning to `Fc1ccc(-c2nc3occn3c2-c2ccc3nccnc3c2)cc1F` [Compound 136, 6-(3,4-difluorophenyl)-5-(quinoxalin-6-yl)imidazo[2,1-b]oxaole], the IC50 in the test on GDF8 (setting [1]) and in the test on TGF-β (setting [2]) was 100 to 1000 nM each time.

As to `Fc1ccc(-c2nc3occn3c2-c2ccc3nccn3c2)cc1F` [Compound 137, 6-(3,4-difluorophenyl)-5-(imidazo[1,2-a]pyridin-6-yl)imidazo[2,1-b]oxazole], the IC50 with GDF8 (setting [1]) was < 50 nM; in the test with TGF-β (setting [2]), 50 to 100 nM.

For `Cc1cccc(-c2nc3occn3c2I)c1` [Compound 138, 5-iodo-6-(m-tolyl)imidazo[2,1-b]oxazole], the IC50 in the test with GDF8 (setting [1]) and in the test with TGF-β (setting [2]) was > 1000 nM throughout.
